Data published in patent publication US11590139B2, “Substituted aminopurine compounds, compositions thereof, and methods of treatment therewith” (Signal Pharmaceuticals, LLC, priority 2014, dated 2023).
Where two headings read alike, the source gives them in different places.

Test system: Lox-IMVI melanoma cell line
Experiment: Lox-IMVI anti-proliferative assay (growth inhibition, Cell Titer-Glo)
Type: cell-based, human
Conditions: Homo sapiens
Outline: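 Growth inhibition is assessed over 72 h in RPMI + 10% FBS at 0.2% DMSO, with ATP-based luminescence used as the viability measure. IC50 is fitted from normalized dose-response data.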

[1] = IC50 activity level in the cell-based Lox-IMVI anti-proliferative assay, read-out: Activity
[2] = Lox-IMVI anti-proliferative assay, IC50 activity level, read-out: Activity
[3] = Lox-IMVI melanoma cell line, anti-proliferative assay, read-out: Activity (IC50 activity level)

Row | Structure (SMILES) | IC50 [1] [µM] | also measured
1 | NC(=O)[C@H]1CC[C@@H](n2c(Nc3c(Cl)cc(F)cc3Cl)nc3cnc(NCC(F)(F)CO)nc32)CC1 [Example 452, (1s,4s)-4-(8-(2,6-dichloro-4-fluorophenylamino)-2-(2,2-difluoro-3-hydroxypropylamino)-9H-purin-9-yl)cyclohexanecarboxamide] | – | IC50 [2]: > 1 µM
2 | NC(=O)[C@H]1CC[C@@H](n2c(Nc3c(F)cc(Cl)cc3Cl)nc3cnc(NC4CCOCC4)nc32)CC1 [Example 40] | < 0.25 | –
3 | CC(C)Nc1ncc2nc(Nc3ccc(F)cc3Cl)n([C@H]3CC[C@@H](C(N)=O)CC3)c2n1 [Example 97, (1s,4s)-4-(8-(2-chloro-4-fluorophenylamino)-2-(isopropylamino)-9H-purin-9-yl)cyclohexanecarboxamide] | > 1 | –
4 | NC(=O)[C@H]1CC[C@@H](n2c(Nc3c(F)ccc(Cl)c3F)nc3cnc(NC4CC5(COC5)C4)nc32)CC1 [Example 196, (1s,4s)-4-(2-(2-oxaspiro[3.3]heptan-6-ylamino)-8-(3-chloro-2,6-difluorophenylamino)-9H-purin-9-yl)cyclohexanecarboxamide] | > 1 | –
5 | C[C@@H]1CC[C@@H](Nc2ncc3nc(Nc4c(F)cccc4Cl)n([C@H]4CC[C@@H](C(N)=O)CC4)c3n2)C[C@H]1O [Example 342, (1S,4s)-4-(8-(2-chloro-6-fluorophenylamino)-2-((1R,3R,4R)-3-hydroxy-4-methylcyclohexylamino)-9H-purin-9-yl)cyclohexanecarboxamide] | > 1 | –
6 | NC(=O)[C@H]1CC[C@@H](n2c(Nc3ccc(Cl)cc3Cl)nc3cnc(N[C@H]4COC[C@@H]4O)nc32)CC1 [Example 319, (1R,4s)-4-(8-(2,4-dichlorophenylamino)-2-((3S,4R)-4-hydroxytetrahydrofuran-3-ylamino)-9H-purin-9-yl)cyclohexanecarboxamide] | > 1 | –
7 | NC(=O)[C@H]1CC[C@@H](n2c(Nc3c(Cl)cc(Cl)cc3Cl)nc3cnc(NC4CCCC4)nc32)CC1 [Example 68, (1s,4s)-4-(2-(cyclopentylamino)-8-(2,4,6-trichlorophenylamino)-9H-purin-9-yl)cyclohexanecarboxamide] | 0.5 to 1 | –
8 | NC(=O)[C@H]1CC[C@@H](n2c(Nc3cc(Cl)ccc3F)nc3cnc(N[C@@H]4CCC[C@H]4O)nc32)CC1 [Example 262, (1S,4s)-4-(8-(5-chloro-2-fluorophenylamino)-2-((1R,2R)-2-hydroxycyclopentylamino)-9H-purin-9-yl)cyclohexanecarboxamide] | > 1 | –
9 | NC(=O)[C@H]1CC[C@@H](n2c(Nc3c(Cl)cc(F)cc3Cl)nc3cnc(N[C@@H]4COC[C@H]4O)nc32)CC1 [Example 315, (1S,4s)-4-(8-(2,6-dichloro-4-fluorophenylamino)-2-((3R,4S)-4-hydroxytetrahydrofuran-3-ylamino)-9H-purin-9-yl)cyclohexanecarboxamide] | > 1 | –
10 | C[C@@H]1COCC[C@@H]1Nc1ncc2nc(Nc3c(F)cc(Cl)cc3F)n([C@H]3CC[C@@H](C(N)=O)CC3)c2n1 [Example 509, (1R,4s)-4-(8-(4-chloro-2,6-difluorophenylamino)-2-((3S,4S)-3-methyltetrahydro-2H-pyran-4-ylamino)-9H-purin-9-yl)cyclohexanecarboxamide] | – | IC50 [2]: 0.5 to 1 µM
11 | Cc1ccc(S(=O)(=O)N2CCC[C@@H](Nc3ncc4nc(Nc5c(F)cc(F)cc5F)n([C@H]5CC[C@@H](C(N)=O)CC5)c4n3)C2)cc1 [Example 791, (1S,4s)-4-(2-((R)-1-tosylpiperidin-3-ylamino)-8-(2,4,6-trifluorophenylamino)-9H-purin-9-yl)cyclohexanecarboxamide] | – | IC50 [3]: > 1 µM
12 | NC(=O)[C@H]1CC[C@@H](n2c(Nc3c(F)cc(Cl)cc3Cl)nc3cnc(N[C@@H]4COC[C@H]4O)nc32)CC1 [Example 314, (1S,4s)-4-(8-(2,4-dichloro-6-fluorophenylamino)-2-((3R,4S)-4-hydroxytetrahydrofuran-3-ylamino)-9H-purin-9-yl)cyclohexanecarboxamide] | > 1 | –
13 | COC(=O)N1CCC[C@@H](Nc2ncc3nc(Nc4c(Cl)cc(F)cc4Cl)n([C@H]4CC[C@@H](C(N)=O)CC4)c3n2)C1 [Example 410, (R)-methyl 3-(9-((1s,4S)-4-carbamoylcyclohexyl)-8-(2,6-dichloro-4-fluorophenylamino)-9H-purin-2-ylamino)piperidine-1-carboxylate] | – | IC50 [2]: > 1 µM
14 | C[C@]1(C(N)=O)CC[C@@H](n2c(Nc3c(F)cc(F)cc3Cl)nc3cnc(NC4CCOCC4)nc32)CC1 [Example 673, (1s,4s)-4-(8-(2-chloro-4,6-difluorophenylamino)-2-(tetrahydro-2H-pyran-4-ylamino)-9H-purin-9-yl)-1-methylcyclohexanecarboxamide] | – | IC50 [3]: < 0.25 µM
15 | NC(=O)[C@H]1CC[C@@H](n2c(Nc3c(F)cc(Cl)cc3Cl)nc3cnc(N[C@H]4CCC[C@@H]4O)nc32)CC1 [Example 271, (1R,4s)-4-(8-(2,4-dichloro-6-fluorophenylamino)-2-((1S,2S)-2-hydroxycyclopentylamino)-9H-purin-9-yl)cyclohexanecarboxamide] | 0.5 to 1 | –
16 | N#Cc1cc(F)c(Nc2nc3cnc(NC4CCOCC4)nc3n2[C@H]2CC[C@@H](C(N)=O)CC2)c(Cl)c1 [Example 308, (1s,4s)-4-(8-(2-chloro-4-cyano-6-fluorophenylamino)-2-(tetrahydro-2H-pyran-4-ylamino)-9H-purin-9-yl)cyclohexanecarboxamide] | < 0.25 | –
17 | NC(=O)[C@H]1CC[C@@H](n2c(Nc3c(F)cc(F)cc3F)nc3cnc(N[C@H]4CCC[C@H](O)C4)nc32)CC1 [Example 458, (1R,4s)-4-(2-((1S,3S)-3-hydroxycyclohexylamino)-8-(2,4,6-trifluorophenylamino)-9H-purin-9-yl)cyclohexanecarboxamide] | – | IC50 [2]: > 1 µM
18 | C[C@]1(C(N)=O)CC[C@@H](n2c(Nc3c(Cl)cc(Cl)cc3Cl)nc3cnc(N[C@H]4CCOC[C@@H]4F)nc32)CC1 [Example 802, (1R,4s)-4-(2-(((3R,4S)-3-fluorotetrahydro-2H-pyran-4-yl)amino)-8-((2,4,6-trichlorophenyl)amino)-9H-purin-9-yl)-1-methylcyclohexane-1-carboxamide] | – | IC50 (Lox-IMVI anti-proliferative assay, cell-based, read-out: Activity (IC50 activity level)): < 0.25 µM
19 | C[C@H]1COCC[C@H]1Nc1ncc2nc(Nc3c(Cl)cc(Cl)cc3Cl)n([C@H]3CC[C@@H](C(N)=O)CC3)c2n1 [Example 501, (1S,4s)-4-(2-((3R,4R)-3-methyltetrahydro-2H-pyran-4-ylamino)-8-(2,4,6-trichlorophenylamino)-9H-purin-9-yl)cyclohexanecarboxamide] | – | IC50 [2]: 0.25 to 0.5 µM
20 | C[C@]1(C(N)=O)CC[C@@H](n2c(Nc3c(Cl)cc(Cl)cc3Cl)nc3cnc(N[C@H]4CCC[C@H](O)C4)nc32)CC1 [Example 611, (1R,4s)-4-(2-((1S,3S)-3-hydroxycyclohexylamino)-8-(2,4,6-trichlorophenylamino)-9H-purin-9-yl)-1-methylcyclohexanecarboxamide] | – | IC50 [3]: < 0.25 µM
21 | NC(=O)[C@H]1CC[C@@H](n2c(Nc3c(Cl)cc(F)cc3Cl)nc3cnc(N[C@@H]4CCC[C@@H](O)C4)nc32)CC1 [Example 423, (1S,4s)-4-(8-(2,6-dichloro-4-fluorophenylamino)-2-((1R,3R)-3-hydroxycyclohexylamino)-9H-purin-9-yl)cyclohexanecarboxamide] | – | IC50 [2]: 0.5 to 1 µM
22 | NC(=O)[C@H]1CC[C@@H](n2c(Nc3c(Cl)cc(Cl)cc3Cl)nc3cnc(N[C@H]4COC[C@@H]4O)nc32)CC1 [Example 313, (1R,4s)-4-(2-((3S,4R)-4-hydroxytetrahydrofuran-3-ylamino)-8-(2,4,6-trichlorophenylamino)-9H-purin-9-yl)cyclohexanecarboxamide] | 0.5 to 1 | –
23 | NC(=O)[C@H]1CC[C@@H](n2c(Nc3ccc(Cl)cc3Cl)nc3cnc(NC4COCC4O)nc32)CC1 (stereo partly shown) [Example 191, (1s,4s)-4-(8-(2,4-dichlorophenylamino)-2-(4-hydroxytetrahydrofuran-3-ylamino)-9H-purin-9-yl)cyclohexanecarboxamide] | > 1 | –
24 | C[C@]1(C(N)=O)CC[C@@H](n2c(Nc3c(F)cc(C#N)cc3Cl)nc3cnc(NC4CC(F)(F)C4)nc32)CC1 [Example 583, (1s,4s)-4-(8-(2-chloro-4-cyano-6-fluorophenylamino)-2-(3,3-difluorocyclobutylamino)-9H-purin-9-yl)-1-methylcyclohexanecarboxamide] | – | IC50 [2]: < 0.25 µM
25 | C[C@@H](CO)Nc1ncc2nc(Nc3c(Cl)cc(F)cc3Cl)n([C@H]3CC[C@@H](C(N)=O)CC3)c2n1 [Example 166, (1R,4s)-4-(8-(2,6-dichloro-4-fluorophenylamino)-2-((S)-1-hydroxypropan-2-ylamino)-9H-purin-9-yl)cyclohexanecarboxamide] | 0.5 to 1 | –
26 | N#Cc1cc(Cl)c(Nc2nc3cnc(NC[C@@H]4CCCC[C@@H]4O)nc3n2[C@H]2CC[C@@H](C(N)=O)CC2)c(Cl)c1 [Example 659, (1R,4s)-4-(8-(2,6-dichloro-4-cyanophenylamino)-2-(((1S,2S)-2-hydroxycyclohexyl)methylamino)-9H-purin-9-yl)cyclohexanecarboxamide] | – | IC50 [3]: > 1 µM

The next lines start with results.

Row | IC50 [1] [µM] | Structure (SMILES) | also measured
27 | > 1 | NC(=O)[C@H]1CC[C@@H](n2c(Nc3ccc(Cl)c(F)c3F)nc3cnc(N[C@@H]4CCC[C@H](O)C4)nc32)CC1 [Example 360, (1S,4s)-4-(8-(4-chloro-2,3-difluorophenylamino)-2-((1R,3S)-3-hydroxycyclohexylamino)-9H-purin-9-yl)cyclohexanecarboxamide] | –
28 | < 0.25 | C[C@@H](CO)Nc1ncc2nc(Nc3c(Cl)cc(C#N)cc3Cl)n([C@H]3CC[C@@H](C(N)=O)CC3)c2n1 [Example 366, (1R,4s)-4-(8-(2,6-dichloro-4-cyanophenylamino)-2-((S)-1-hydroxypropan-2-ylamino)-9H-purin-9-yl)cyclohexanecarboxamide] | –
